Measured values as given in US10829501B2 (BRISTOL-MYERS SQUIBB COMPANY, priority 2016, dated 2020).

These compounds were tested against ROCK2 (Homo sapiens, UniProt O75116) (assay: ROCK2 kinase inhibition assay (LABCHIP 3000 Reader, FITC peptide substrate);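 further: rho kinase reaction read by separating phosphorylated from unphosphorylated peptide on chip, with inhibition of kinase activity computed per concentration across a dose-response series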).
Chain of ROCK2 (O75116 whole entry, species assumed): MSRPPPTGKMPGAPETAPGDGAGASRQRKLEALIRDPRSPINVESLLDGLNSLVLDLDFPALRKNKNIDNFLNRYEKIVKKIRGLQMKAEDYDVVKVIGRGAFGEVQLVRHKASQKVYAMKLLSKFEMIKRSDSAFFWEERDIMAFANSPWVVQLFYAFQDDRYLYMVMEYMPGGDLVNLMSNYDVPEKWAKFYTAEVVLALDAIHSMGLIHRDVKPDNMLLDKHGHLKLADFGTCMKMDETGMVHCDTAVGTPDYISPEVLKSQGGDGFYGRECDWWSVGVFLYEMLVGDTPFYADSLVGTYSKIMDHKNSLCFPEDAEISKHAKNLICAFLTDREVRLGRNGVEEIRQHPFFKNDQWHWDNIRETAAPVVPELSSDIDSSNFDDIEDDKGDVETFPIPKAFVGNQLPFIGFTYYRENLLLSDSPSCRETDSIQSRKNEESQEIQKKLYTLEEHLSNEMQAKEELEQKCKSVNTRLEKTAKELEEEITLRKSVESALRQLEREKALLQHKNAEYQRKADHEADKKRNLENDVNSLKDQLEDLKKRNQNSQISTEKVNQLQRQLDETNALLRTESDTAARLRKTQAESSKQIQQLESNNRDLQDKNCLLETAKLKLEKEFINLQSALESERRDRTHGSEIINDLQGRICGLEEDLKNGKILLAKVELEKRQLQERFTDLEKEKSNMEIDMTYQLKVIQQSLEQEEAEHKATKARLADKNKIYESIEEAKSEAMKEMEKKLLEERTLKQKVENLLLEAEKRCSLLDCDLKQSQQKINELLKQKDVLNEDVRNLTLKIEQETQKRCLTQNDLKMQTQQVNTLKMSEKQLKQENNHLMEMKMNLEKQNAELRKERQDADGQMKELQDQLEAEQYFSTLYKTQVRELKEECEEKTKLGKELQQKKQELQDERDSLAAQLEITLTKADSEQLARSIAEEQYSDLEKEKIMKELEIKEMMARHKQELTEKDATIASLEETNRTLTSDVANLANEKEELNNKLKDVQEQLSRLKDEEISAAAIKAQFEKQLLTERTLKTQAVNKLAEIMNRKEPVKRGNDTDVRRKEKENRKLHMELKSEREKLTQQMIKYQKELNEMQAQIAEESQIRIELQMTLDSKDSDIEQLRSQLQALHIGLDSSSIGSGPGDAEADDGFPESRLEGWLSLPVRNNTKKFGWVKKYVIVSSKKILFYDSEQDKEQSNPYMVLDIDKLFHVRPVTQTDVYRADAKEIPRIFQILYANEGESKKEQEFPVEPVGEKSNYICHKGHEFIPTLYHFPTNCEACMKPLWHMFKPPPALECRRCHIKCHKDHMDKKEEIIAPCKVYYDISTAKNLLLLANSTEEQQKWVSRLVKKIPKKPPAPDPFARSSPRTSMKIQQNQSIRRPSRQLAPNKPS

Structure (SMILES) | IC50
COCCNC(=O)c1cccc(-c2ccc(C(N)=O)c(OC3CC4(CC(NC(=O)c5cnn6cc(OCC(C)(C)O)ccc56)C4)C3)c2)c1 (stereo not drawn) [Example 293, 3′-((6-(6-(2-hydroxy-2-methylpropoxy)pyrazolo[1,5-a]pyridine-3-carboxamido)spiro[3.3]heptan-2-yl)oxy)-N3-(2-methoxyethyl)-[1,1′-biphenyl]-3,4′-dicarboxamide] | 5 to 50 nM
CC(C)(O)COc1ccc2c(C(=O)NC3CC4(C3)CC(Oc3cc(-c5cccc(S(=O)(=O)NCCO)c5)ccc3C(N)=O)C4)cnn2c1 (stereo not drawn) [Example 297, N-(6-((4-carbamoyl-3′-(N-(2-hydroxyethyl)sulfamoyl)-[1,1′-biphenyl]-3-yl)oxy)spiro[3.3]heptan-2-yl)-6-(2-hydroxy-2-methylpropoxy)pyrazolo[1,5-a]pyridine-3-carboxamide] | < 5 nM
NC(=O)c1ccccc1O[C@H]1CC2(C[C@H](NC(=O)c3cnn4ccccc34)C2)C1 (stereo partly drawn) [Example 303, N-((aR)-6-(2-carbamoylphenoxy)spiro[3.3]heptan-2-yl)pyrazolo[1,5-a]pyridine-3-carboxamide] | 50 to 250 nM
CC(C)(O)COc1ccc2c(C(=O)NC3CC4(C3)CC(Oc3nc(OCCN)ncc3C(N)=O)C4)cnn2c1C1CC1 (stereo not drawn) [Example 306, N-(6-((2-(2-aminoethoxy)-5-carbamoylpyrimidin-4-yl)oxy)spiro[3.3]heptan-2-yl)-7-cyclopropyl-6-(2-hydroxy-2-methylpropoxy)pyrazolo[1,5-a]pyridine-3-carboxamide] | 50 to 250 nM
[H][C@]1(Oc2ncccc2C(N)=O)C[C@@]2(C[C@H](NC(=O)c3cnn4c(Br)c(OCC(C)(F)F)ccc34)C2)C1 (stereo partly drawn) [Example 307, 7-bromo-N-((aR)-6-((3-carbamoylpyridin-2-yl)oxy)spiro[3.3]heptan-2-yl)-6-(2,2-difluoropropoxy)pyrazolo[1,5-a]pyridine-3-carboxamide] | 5 to 50 nM
CC(F)(F)COc1ccc2c(C(=O)N[C@H]3CC4(C3)C[C@H](Oc3ncccc3C(N)=O)C4)cnn2c1 (stereo partly drawn) [Example 308, N-((aR)-6-((3-carbamoylpyridin-2-yl)oxy)spiro[3.3]heptan-2-yl)-6-(2,2-difluoropropoxy)pyrazolo[1,5-a]pyridine-3-carboxamide] | < 5 nM
CC(F)(F)COc1ccc2c(C(=O)N[C@H]3CC4(C3)C[C@H](Oc3ncccc3C(N)=O)C4)cnn2c1C1CC1 (stereo partly drawn) [Example 309, N-((aR)-6-((3-carbamoylpyridin-2-yl)oxy)spiro[3.3]heptan-2-yl)-7-cyclopropyl-6-(2,2-difluoropropoxy)pyrazolo[1,5-a]pyridine-3-carboxamide] | < 5 nM
CC(F)(F)COc1ccc2c(C(=O)N[C@H]3CC4(C3)C[C@H](Oc3ncccc3C(N)=O)C4)cnn2c1-c1cn[nH]c1 (stereo partly drawn) [Example 310, N-((aR)-6-((3-carbamoylpyridin-2-yl)oxy)spiro[3.3]heptan-2-yl)-6-(2,2-difluoropropoxy)-7-(1H-pyrazol-4-yl)pyrazolo[1,5-a]pyridine-3-carboxamide] | < 5 nM
NC(=O)c1cccnc1O[C@H]1CC2(C[C@H](NC(=O)c3cnn4ccccc34)C2)C1 (stereo partly drawn) [Example 311, N-((aR)-6-((3-carbamoylpyridin-2-yl)oxy)spiro[3.3]heptan-2-yl)pyrazolo[1,5-a]pyridine-3-carboxamide] | 50 to 250 nM
NC(=O)c1cccnc1O[C@H]1CC2(C[C@H](NC(=O)c3cnn4cc(OC(F)F)ccc34)C2)C1 (stereo partly drawn) [Example 312, N-((aR)-6-((3-carbamoylpyridin-2-yl)oxy)spiro[3.3]heptan-2-yl)-6-(difluoromethoxy)pyrazolo[1,5-a]pyridine-3-carboxamide] | 5 to 50 nM
NC(=O)c1cccnc1O[C@H]1CC2(C[C@H](NC(=O)c3cnn4cc(OCC(F)F)ccc34)C2)C1 (stereo partly drawn) [Example 313, N-((aR)-6-((3-carbamoylpyridin-2-yl)oxy)spiro[3.3]heptan-2-yl)-6-(2,2-difluoroethoxy)pyrazolo[1,5-a]pyridine-3-carboxamide] | 5 to 50 nM
NC(=O)c1cccnc1O[C@H]1CC2(C[C@H](NC(=O)c3cnn4cc(OCC(O)C(F)(F)F)ccc34)C2)C1 (stereo partly drawn) [Example 314, N-((aR)-6-((3-carbamoylpyridin-2-yl)oxy)spiro[3.3]heptan-2-yl)-6-(3,3,3-trifluoro-2-hydroxypropoxy)pyrazolo[1,5-a]pyridine-3-carboxamide] | < 5 nM
NC(=O)c1cccnc1O[C@H]1CC2(C[C@H](NC(=O)c3cnn4cc(OCC(O)(C(F)(F)F)C(F)(F)F)ccc34)C2)C1 (stereo partly drawn) [Example 315, N-((aR)-6-((3-carbamoylpyridin-2-yl)oxy)spiro[3.3]heptan-2-yl)-6-(3,3,3-trifluoro-2-hydroxy-2-(trifluoromethyl)propoxy)pyrazolo[1,5-a]pyridine-3-carboxamide] | 5 to 50 nM
NC(=O)c1cccnc1O[C@H]1CC2(C[C@H](NC(=O)c3cnn4cc(N5CCC(F)(F)CC5)ccc34)C2)C1 (stereo partly drawn) [Example 316, N-((aR)-6-((3-carbamoylpyridin-2-yl)oxy)spiro[3.3]heptan-2-yl)-6-(4,4-difluoropiperidin-1-yl)pyrazolo[1,5-a]pyridine-3-carboxamide] | < 5 nM

Now from value to compound:

IC50 | Structure (SMILES)
5 to 50 nM | CC(C)(O)COc1ccc2c(C(=O)NC3CC4(C3)CC(Oc3cc(/C=C/CCO)ccc3C(N)=O)C4)cnn2c1 (stereo not drawn) [Example 290, (E)-N-(6-(2-carbamoyl-5-(4-hydroxybut-1-en-1-yl)phenoxy)spiro[3.3]heptan-2-yl)-6-(2-hydroxy-2-methylpropoxy)pyrazolo[1,5-a]pyridine-3-carboxamide]
5 to 50 nM | CC(C)(O)COc1ccc2c(C(=O)NC3CC4(C3)CC(Oc3cc(-c5cccc(/C=C/C(=O)O)c5)ccc3C(N)=O)C4)cnn2c1 (stereo not drawn) [Example 291, (E)-3-(4′-carbamoyl-3′-((6-(6-(2-hydroxy-2-methylpropoxy)pyrazolo[1,5-a]pyridine-3-carboxamido)spiro[3.3]heptan-2-yl)oxy)-[1,1′-biphenyl]-3-yl)acrylic acid]
< 5 nM | CC(C)(O)COc1ccc2c(C(=O)NC3CC4(C3)CC(Oc3cc(-c5ccc(F)c(C(N)=O)c5)ccc3C(N)=O)C4)cnn2c1 (stereo not drawn) [Example 292, 4-fluoro-3′-((6-(6-(2-hydroxy-2-methylpropoxy)pyrazolo[1,5-a]pyridine-3-carboxamido)spiro[3.3]heptan-2-yl)oxy)-[1,1′-biphenyl]-3,4′-dicarboxamide]
5 to 50 nM | CC(C)(O)COc1ccc2c(C(=O)NC3CC4(C3)CC(Oc3cc(-c5cccc(C(=O)N6CCOCC6)c5)ccc3C(N)=O)C4)cnn2c1 (stereo not drawn) [Example 294, N-(6-((4-carbamoyl-3′-(morpholine-4-carbonyl)-[1,1′-biphenyl]-3-yl)oxy)spiro[3.3]heptan-2-yl)-6-(2-hydroxy-2-methylpropoxy)pyrazolo[1,5-a]pyridine-3-carboxamide]
5 to 50 nM | CNC(=O)c1cc(-c2ccc(C(N)=O)c(OC3CC4(CC(NC(=O)c5cnn6cc(OCC(C)(C)O)ccc56)C4)C3)c2)ccc1F (stereo not drawn) [Example 295, 4-fluoro-3′-((6-(6-(2-hydroxy-2-methylpropoxy)pyrazolo[1,5-a]pyridine-3-carboxamido)spiro[3.3]heptan-2-yl)oxy)-N3-methyl-[1,1′-biphenyl]-3,4′-dicarboxamide]
5 to 50 nM | CC(C)(O)COc1ccc2c(C(=O)NC3CC4(C3)CC(Oc3cc(-c5cccc(C(=O)O)c5)ccc3C(N)=O)C4)cnn2c1 (stereo not drawn) [Example 296, 4′-carbamoyl-3′-((6-(6-(2-hydroxy-2-methylpropoxy)pyrazolo[1,5-a]pyridine-3-carboxamido)spiro[3.3]heptan-2-yl)oxy)-[1,1′-biphenyl]-3-carboxylic acid]
< 5 nM | CC(C)(O)COc1ccc2c(C(=O)NC3CC4(C3)CC(Oc3cc(-c5cccc(S(N)(=O)=O)c5)ccc3C(N)=O)C4)cnn2c1 (stereo not drawn) [Example 298, N-(6-((4-carbamoyl-3′-sulfamoyl-[1,1′-biphenyl]-3-yl)oxy)spiro[3.3]heptan-2-yl)-6-(2-hydroxy-2-methylpropoxy)pyrazolo[1,5-a]pyridine-3-carboxamide]
5 to 50 nM | CC(C)(O)COc1ccc2c(C(=O)NC3CC4(C3)CC(Oc3cc(-c5ccc(F)c(-c6nnn[nH]6)c5)ccc3C(N)=O)C4)cnn2c1 (stereo not drawn) [Example 299, N-(6-((4-carbamoyl-4′-fluoro-3′-(1H-tetrazol-5-yl)-[1,1′-biphenyl]-3-yl)oxy)spiro[3.3]heptan-2-yl)-6-(2-hydroxy-2-methylpropoxy)pyrazolo[1,5-a]pyridine-3-carboxamide]
< 5 nM | CC(C)(O)COc1ccc2c(C(=O)NC3CC4(C3)CC(Oc3cc(CCCN)ccc3C(N)=O)C4)cnn2c1 (stereo not drawn) [Example 300, N-(6-(5-(3-aminopropyl)-2-carbamoylphenoxy)spiro[3.3]heptan-2-yl)-6-(2-hydroxy-2-methylpropoxy)pyrazolo[1,5-a]pyridine-3-carboxamide]
5 to 50 nM | CC(C)(O)COc1ccc2c(C(=O)NC3CC4(C3)CC(Oc3cc(C5CCNC5)ccc3C(N)=O)C4)cnn2c1 (stereo not drawn) [Example 301, N-(6-(2-carbamoyl-5-(pyrrolidin-3-yl)phenoxy)spiro[3.3]heptan-2-yl)-6-(2-hydroxy-2-methylpropoxy)pyrazolo[1,5-a]pyridine-3-carboxamide]
< 5 nM | CC(C)(O)COc1ccc2c(C(=O)N[C@H]3CC4(C3)C[C@H](Oc3cc(Br)ccc3C(N)=O)C4)cnn2c1 (stereo partly drawn) [Example 302, N-((aR)-6-(5-bromo-2-carbamoylphenoxy)spiro[3.3]heptan-2-yl)-6-(2-hydroxy-2-methylpropoxy)pyrazolo[1,5-a]pyridine-3-carboxamide]
5 to 50 nM | CC(C)(O)COc1ccc2c(C(=O)NC3CC4(C3)CC(Oc3cc(CC5CCNC5)ccc3C(N)=O)C4)cnn2c1 (stereo not drawn) [Example 304, N-(6-(2-carbamoyl-5-(pyrrolidin-3-ylmethyl)phenoxy)spiro[3.3]heptan-2-yl)-6-(2-hydroxy-2-methylpropoxy)pyrazolo[1,5-a]pyridine-3-carboxamide]
< 5 nM | CC(C)(O)COc1ccc2c(C(=O)NC3CC4(C3)CC(Oc3cc(CCCCN)ccc3C(N)=O)C4)cnn2c1 (stereo not drawn) [Example 305, N-(6-(5-(4-aminobutyl)-2-carbamoylphenoxy)spiro[3.3]heptan-2-yl)-6-(2-hydroxy-2-methylpropoxy)pyrazolo[1,5-a]pyridine-3-carboxamide]
